The values below come from paper PMC5342230, “ITC-derived binding affinity may be biased due to titrant (nano)-aggregation. Binding of halogenated benzotriazoles to the catalytic domain of human protein kinase CK2” (PLoS ONE, 2017).

The target in data set [1] is T1, catalytic subunit of human protein kinase CK2 (hCK2α) (Homo sapiens, UniProt P68400).
T1 construct: made in house
In words: Reverse ITC (ligand titrated with hCK2α), one type of binding sites. Conditions: strong site.

In data set [2] the target is T1, catalytic subunit of human protein kinase CK2 (hCK2α). Described as above. Conditions: protein as titrant, 25°C. On the procedure:
(§1) It should be stressed that the solvent composition of protein and ligand samples were always identical, so that the protein and ligand concentrations were the only variable factors.
(§2) All ITC measurements were carried out at 25°C with the Nano ITC calorimeter (TA Instruments), using 250 rpm stirring and 1000 s delay between succeeding injections to the sample cell (950 μl). The first “technical” injection of a reduced volume (4–5 μl) was followed by 12 injections of 20 μl, however 16x15 μl or 10x25 μl schemes were occasionally used. The concentration of reagents varied depending on their affinities and experiment type. Thus 20–200 μM ligand solution was used as the titrant, but only 4–10 μM when placed in the sample cell. Accordingly, the sample cell was filled with 4–30 μM hCK2α solution, while 20–40 μM protein solution was placed in the syringe. For each ligand at least two titration experiments were done with different reagent concentrations, and occasionally with optimized injection volume. […] The resulting data were processed with the standard NanoAnalyze software package (version 3.5.0), assuming the model of one type of binding sites of the apparent stoichiometry close to 1:1. The automatically adjusted integration regions were used to minimize the impact of researcher’s arbitrary decision. The uncertainty of all determined values was estimated as the half-width of 67% confidence interval.

The target is the same in data set [3]. In words: Microscale Thermophoresis (MST), global fit of two independent binding sites. Conditions: for Kd: global fit of 6 pseudo-titrations. On the procedure:
For MST experiments the protein sample additionally contained 5 mM β-mercaptoethanol to prevent sticking of protein to capillaries.
as §1
The concentration of the labeled protein was kept constant at ~100 nM, while the ligand to protein concentration ratio was in the range of 0.01 to 10^5 nM. The samples were loaded into K002 Monolith™ NT.115 Standard Treated Capillaries, which after 10 min incubation time were analyzed using the Monolith NT.115 (NanoTemper Technologies). […] The numerical model was based on the cubic equation describing the concentration-dependent equilibrium of the apo form of the protein, free ligand, and their 1:1 and 1:2 complexes K1⋅K2⋅[L]^3+(K1+K1⋅K2⋅(2⋅P0-L0))⋅[L]^2+(1+K1⋅(P0-L0))⋅[L]=L0 (1) where P0 and L0 are the total concentrations of the protein and ligand, respectively; K1 and K2 are the […] for 1:1 and 1:2 complexes; and [L] is the concentration of the free ligand. The above equation can be resolved by roots against [L]
Concentrations of 1:1 and 1:2 complexes equal K1∙[P]∙[L] and K1∙K2∙[P]∙[L]^2, respectively. The model was implemented in Origin 9.0 package (www.originlab.com). Dissociation constants, K1 and K2, were estimated globally for a series of 6 MST pseudo-titration experiments, while contributions of three protein forms (i.e. apo, and 1:1 and 1:2 complexes) to the observed MST signal were fitted individually for each experiment (S1 Fig).

The target is the same in data set [4]. The experiment in a line: ITC (hCK2α titrated with the ligand), one type of binding sites. To be noted: ligand as titrant, 25°C. On the procedure:
as §1, §2

For data set [5] the target is unchanged. In words: Reverse ITC with MST-derived Kd (two types of binding sites, Kd constrained). To be noted: for ΔG1 / ΔG2 / Kd: constrained based on the MST-derived binding affinities; for ΔH1 / ΔS1 / ΔH2 / ΔS2: reverse ITC, two-site model, Kd from MST; for ΔH1 / ΔS1: strong site; for ΔH2 / ΔS2: weak site. On the procedure:
All ITC measurements were carried out at 25°C with the Nano ITC calorimeter (TA Instruments), using 250 rpm stirring and 1000 s delay between succeeding injections to the sample cell (950 μl). The first “technical” injection of a reduced volume (4–5 μl) was followed by 12 injections of 20 μl, however 16x15 μl or 10x25 μl schemes were occasionally used. The concentration of reagents varied depending on their affinities and experiment type. Thus 20–200 μM ligand solution was used as the titrant, but only 4–10 μM when placed in the sample cell. Accordingly, the sample cell was filled with 4–30 μM hCK2α solution, while 20–40 μM protein solution was placed in the syringe. For each ligand at least two titration experiments were done with different reagent concentrations, and occasionally with optimized injection volume. […] The automatically adjusted integration regions were used to minimize the impact of researcher’s arbitrary decision. The uncertainty of all determined values was estimated as the half-width of 67% confidence interval.

Data set [6] can be described thus: UV-VIS spectroscopy, deviation from Lambert-Beer law (ligand aggregation). The data set is classed as physicochemical. On the procedure: The absorption spectra (200–500 nm) were collected at 25°C using Varian Cary 50 UV-VIS spectrophotometer equipped with 1 cm quartz cells. The initial buffer solution was manually titrated with the 851 μM TBBt solution to record spectra for increasing solute concentration. For each sample UV-VIS spectrum was collected four times, every 20 s including 15 s acquisition time, starting 5 s after solute dilution. The changes in the absorption spectrum of 40 μM TBBt sample, prepared just before the experiment, were additionally tracked for an hour to follow possible disintegration of soluble aggregates.

The nature of data set [7]: Dynamic light scattering (DLS/SLS) of ligand nano-aggregates. The data set is classed as physicochemical. To be noted: for formation of nano-aggregates (DLS autocorrelation function): 1 mM ligand, 25°C, buffer with 2% DMSO. On the procedure:
All DLS experiments were carried out at 25°C with the DynaPro NanoStar 192-DPN apparatus (Wyatt Technology) equipped with 661 nm laser. The autocorrelation function for the light scattered by 5-BrBt or TBBt buffered solution placed in Eppendorf disposable cuvettes (50–2000 μl) was measured at various solute concentrations in the range of 0.5 μs– 0.1 s, and further decomposed to the distribution of particle size (ranging from 0.18 nm to 2.5 μm) using Dynamics software (Wyatt Technology, ver. 7.0.2.7). Solutions with 2% (v/v) DMSO content were prepared in 25 mM Tris-HCl (pH 8, 0.5 M NaCl) filtered with 0.22 μm pore size syringe filter. All samples were centrifuged (9000 g) for 3 minutes immediately before the experiment. For each sample a series of at least 30 repetitions, 10 s each, has been collected, and those with abnormally high SOS function and/or with highly fluctuating SLS signal were removed from the analysis. All remaining data have been averaged to obtain the autocorrelation function (ACF) of a reasonable quality. This procedure was found indispensable for diluted TBBt solutions, in which large aggregates have rarely scattered light crossing the laser beam. Consequently, extreme fluctuations of ACF precluded direct analysis of the time-evolution of TBBt aggregates. However, the raw SLS signal was found applicable to estimate the rate of aggregate disintegration.

Details of data set [8]: method as in http://www.sigmaaldrich.com/catalog/product/sigma/t0826. Conditions: ref http://www.sigmaaldrich.com/catalog/product/sigma/t0826; cited from earlier work.
[9] abbreviates: strong site, read-out: Kd1 (strong binding site).
Where [10] appears, read: weak site, read-out: Kd2 (weak binding site).

The structures appear in SMILES notation. Converted amounts (≈) assume the structure as drawn. “And” between values parts separate entries of the source, which are not always exact repeats. Equal entries are not always repeated. Marks after values point to notes of the source that are not given here.

T1 sequence (P68400 whole entry): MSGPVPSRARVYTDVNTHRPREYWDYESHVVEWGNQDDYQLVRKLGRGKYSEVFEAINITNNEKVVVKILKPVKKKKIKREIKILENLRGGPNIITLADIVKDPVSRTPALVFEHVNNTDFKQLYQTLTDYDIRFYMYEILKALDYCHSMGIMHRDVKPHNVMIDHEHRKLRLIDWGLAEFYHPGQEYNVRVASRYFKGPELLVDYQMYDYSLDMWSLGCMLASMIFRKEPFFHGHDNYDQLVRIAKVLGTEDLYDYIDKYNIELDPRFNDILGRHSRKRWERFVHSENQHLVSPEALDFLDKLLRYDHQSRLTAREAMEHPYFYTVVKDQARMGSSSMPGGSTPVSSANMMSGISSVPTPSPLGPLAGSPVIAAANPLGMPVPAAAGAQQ

Turning to `Brc1cc2[nH]nnc2c(Br)c1Br` [4,5,6-Br3Bt, 4,5,6-tribromobenzotriazole], the “entropic contribution to binding” value in data set [1] is “favorable entropic contribution”. Besides, in data set [2], the Kd was 42 ± 17 nM, the ΔG is -10.1 ± 0.19 kcal/mol, the ΔH was -9.56 ± 0.24 kcal/mol and the ΔS was 9 ± 4 J/mol/K. This compound also came in with a ΔG1 in data set [3] (strong site) of -9.66 ± 0.17 kcal/mol. Moreover, the Kd in data set [3] (setting [9]) came out at 83 ± 29 nM. In data set [3] (weak site), the ΔG2 is -7.29 ± 0.17 kcal/mol. In addition, the Kd in data set [3] (setting [10]) was found to be 4600 ± 1400 nM. Besides, in data set [4], the Kd is 990 ± 270 nM, the ΔG is -8.2 ± 0.14 kcal/mol, the ΔH is -8.37 ± 0.48 kcal/mol and the ΔS was -2 ± 5 J/mol/K. For the same compound, in data set [5], the ΔG1 was -40.4 ^x kJ/mol, the ΔG2 was -30.5 ^x kJ/mol, the ΔH1 is -10.5 ± 0.48 kcal/mol and the ΔS1 was -12 ± 9 J/mol/K. In data set [5], this compound gave a ΔH2 of 0.48 ± 2.2 kcal/mol and a ΔS2 of 109 ± 31 J/mol/K. Also, in data set [5] (read-out: Kd1), the Kd is 83 nM. Also, the Kd in data set [5] (read-out: Kd2) stood at 4600 nM.
In the case of `Brc1cc2nn[nH]c2cc1Br` [5,6-Br2Bt, 5,6-dibromobenzotriazole], in data set [2], the Kd worked out at 46 ± 10 nM, the ΔG is -10 ± 0.12 kcal/mol, the ΔH is -17 ± 0.48 kcal/mol and the ΔS was -98 ± 6 J/mol/K. For the same compound, the ΔG1 in data set [3] (strong site) is -9.68 ± 0.14 kcal/mol. For the same compound, the Kd in data set [3] (setting [9]) stood at 81 ± 22 nM. In data set [3] (weak site), the ΔG2 is -7.31 ± 0.072 kcal/mol. The Kd in data set [3] (setting [10]) came to 4400 ± 500 nM. In data set [4], this compound registered a Kd of 1170 ± 270 nM, a ΔG of -8.1 ± 0.12 kcal/mol, a ΔH of -15.1 ± 0.48 kcal/mol and a ΔS of -97 ± 8 J/mol/K. In data set [5], the ΔG1 is -40.5 ^x kJ/mol, the ΔG2 is -30.6 ^x kJ/mol, the ΔH1 is -18.6 ± 3.11 kcal/mol and the ΔS1 is -126 ± 43 J/mol/K. For the same compound, in data set [5], the ΔH2 is 2.63 ± 8.13 kcal/mol and the ΔS2 amounted to 140 ± 114 J/mol/K. For the same compound, in data set [5] (read-out: Kd1), the Kd was 81 nM. For the same compound, in data set [5] (read-out: Kd2), the Kd was determined as 4400 nM.
Regarding `Brc1ccc2nn[nH]c2c1` [5-BrBt], the “plot of concentration versus absorbance (Lambert-Beer law)” value in data set [6] (control experiment) is listed as “remained linear”. In data set [2], this compound came in with a Kd of 294 ± 73 nM, a ΔG of -8.91 ± 0.12 kcal/mol, a ΔH of -16.7 ± 0.72 kcal/mol and a ΔS of -110 ± 10 J/mol/K. Moreover, in data set [3] (strong site), the ΔG1 is -9.01 ± 0.072 kcal/mol. Further, the Kd in data set [3] (setting [9]) amounted to 246 ± 36 nM. The compound further registered a ΔG2 in data set [3] (weak site) of -7.1 ± 0.096 kcal/mol. The Kd in data set [3] (setting [10]) came out at 6300 ± 1000 nM. Also, the “formation of nano-aggregates (DLS autocorrelation function)” value in data set [7] is listed as “no such effect was observed”. In data set [4], this compound gave a Kd of 310 ± 89 nM, a ΔG of -8.87 ± 0.14 kcal/mol, a ΔH of -16.3 ± 0.72 kcal/mol and a ΔS of -102 ± 9 J/mol/K. In data set [5], the ΔG1 is recorded as -37.7 ^x kJ/mol, the ΔG2 is on record as -29.7 ^x kJ/mol, the ΔH1 is -17.4 ± 1.2 kcal/mol and the ΔS1 was -118 ± 15 J/mol/K. For the same compound, in data set [5], the ΔH2 was determined as 1.7 ± 5.5 kcal/mol and the ΔS2 amounted to 123 ± 77 J/mol/K. Also, the Kd in data set [5] (read-out: Kd1) came to 246 nM. Further, the Kd in data set [5] (read-out: Kd2) stood at 6300 nM.
As for `Brc1c(Br)c(Br)c2[nH]nnc2c1Br` [TBBt, tetrabromobenzotriazole], in data set [6] (40 μM solution, tracked for an hour), the “τ, increase of population of the monomeric form (absorption at 291 nm)” value is listed as 670 ± 40 s. Moreover, the “upper limit of ligand concentration at which monomeric form predominates” value in data set [6] (UV absorbance, deviation from Lambert-Beer law) lay within 20 to 30 µM. Moreover, the “solubility in pure DMSO” value in data set [8] is 65 mM (≈ 28.3 mg/mL). Also, the “formation of nano-aggregates (DLS autocorrelation function)” value in data set [7] is recorded as “forms nano-aggregates”. The radius of nano-aggregates in data set [7] (DLS, 1 mM down to 20 μM) was ~ 100 nm and 100 nm. Also, the “τ, decay of the aggregate population (raw SLS signal)” value in data set [7] (after rapid dilution of 500 μM sample) is recorded as 460 ± 40 s.
